Test results from patent publication US20250325531A1, “TREATMENT OF SYSTOLIC DYSFUNCTION” (MyoKardia, Inc., priority 2024, published 2025).

Experiment: Single ascending oral dose pharmacokinetics in healthy volunteers (plasma and urine, LC MS/MS)
Type: in vivo, human
Conditions: for dose recovered in urine: 0-48 hours urine
Text: This example describes the first-in-human study of Compound I. Based on its mechanism of action, Compound I may offer a targeted therapy for patients with DCM caused by genetic or nongenetic mechanisms. The study was a randomized, double-blind, placebo-controlled, sequential group, single-ascending (oral) dose study in healthy subjects aged 18-55 years. Eight dosing cohorts, each comprising eight healthy subjects, were enrolled. Within each cohort, subjects were randomized 6:2 to Compound I: placebo.
Subjects were resident at the clinical site for up to 5 days and 4 nights, from Day-1 (the day before dosing) to Day 4, and received a single dose of Compound I or placebo on Day 1. ECG telemetry was initiated 1 hour predose and continued through 48 hours postdose (Day 3). Any subject with a predose resting HR ≥80 beats per minute was considered ineligible and not treated. […] Subjects returned for a safety follow-up visit 7 days (+1 day) after dosing.
All randomized study subjects received either Compound I or matching placebo as a single oral dose after a fasting period of at least 6 hours. Compound I drug substance is a crystalline, free-base, synthetic molecule with a molecular weight of 435.4 g/mol.
Compound I was provided as a powder for oral suspension. Placebo was provided as calcium carbonate powder. Both treatments were dosed orally as a suspension. The suspension was made using Ora-Plus® suspending vehicle (Perrigo) and a cherry syrup flavoring vehicle (Humco), mixed 50% to 50%. The suspension was followed by approximately 100 mL water. The suspension was made up within 14 days from the time in which it was dosed which was consistent with the stability data on the suspension. The suspension was made up so the volume administered to the subjects who received Compound I was the same at 20 mL.
Each subject received a dose according to the cohort in which they were enrolled. Cohorts were enrolled sequentially, with each cohort receiving an escalated dose of Compound I. The doses administered were 3 mg, 10 mg, 25 mg, 50 mg, 100 mg, 175 mg, 350 mg, and 525 mg, respectively.
The concentrations of Compound I in human plasma and urine were quantitated by high performance liquid chromatography with tandem mass spectrometric detection (LC MS/MS) (Biological sample analysis study report Alturas AD17-726). Plasma samples were extracted by protein precipitation with acetonitrile containing internal standard MYK-5654. The calibration curves were linear over concentration range of 0.500 to 1000 ng/mL with a lower limit of quantification (LLOQ) of 0.500 ng/mL.
The PK Population included all subjects who received Compound I. Blood samples were collected for PK assessments. The actual timing of the samples may have been modified and/or up to an additional 2 samples may have been requested by the SRC after review of the data from previous cohorts. It was important that PK sampling occurred as closely as possible to the scheduled time (+10%). Both blood and urine samples were used for PK assessments.
In addition, for subjects who received placebo, a single plasma sample near the predicted tmax of Compound I was evaluated to confirm the lack of circulating Compound I. Plasma concentration data for Compound I was summarized using descriptive statistics, including mean, standard deviation (SD), median, minimum, and maximum values, and percent coefficient of variation. Other PK parameters included (but were not limited to) Cmax, tmax, AUC, t1/2, and MRT. Additionally, the apparent terminal-phase terminal half-life was calculated. The dose proportionality of AUC and Cmax was explored.

Compound: Cn1cc(S(=O)(=O)[C@@](C)(F)C2CCN(C(=O)Nc3ccon3)CC2)c(C(F)F)n1 [Compound I, (R)-4-(1-((3-(difluoromethyl)-1-methyl-1H-pyrazol-4-yl)sulfonyl)-1-fluoroethyl)-N-(isoxazol-3-yl) piperidine-1-carboxamide]
- dose recovered in urine (350 mg): approximately 6.0%
- dose recovered in urine (525 mg): ~8.6%
- AUC0-48 Geometric Mean (3 mg): 676.32 ng·h/mL
- AUC0-last Median (3 mg): 713.41 ng·h/mL
- AUC0-∞ Geometric Mean (3 mg): 722.23 ng·h/mL
- CL/F Geometric Mean (3 mg): 4.15 L/h
- CL/F Mean (3 mg): 4.26 L/h
- CL/F Median (3 mg): 4.22 L/h
- Extrapolation Geometric Mean (3 mg): 2.71%
- Extrapolation Mean (3 mg): 2.78%
- Extrapolation Median (3 mg): 2.82%
- Half-Life Lambda Z Geometric Mean (3 mg): 11.10 h
- CL/F Geometric Mean (10 mg): 2.99 L/h
- CL/F Mean (10 mg): 3.06 L/h
- CL/F Median (10 mg): 2.88 L/h
- Cmax Mean (10 mg): 139.17 ng/mL
- Extrapolation Geometric Mean (10 mg): 1.59%
- Extrapolation Mean (10 mg): 1.90%
- Extrapolation Median (10 mg): 2.24%
- Half-Life Lambda Z Mean (10 mg): 13.36 h
- Mean Residence Time Geometric Mean (10 mg): 21.06 h
- Tmax Geometric Mean (10 mg): 4.80 h
- Tmax Mean (10 mg): 4.85 h
- AUC0-last Geometric Mean (25 mg): 6924.51 ng·h/mL
- AUC0-last Mean (25 mg): 7161.62 ng·h/mL
- CL/F Geometric Mean (25 mg): 3.55 L/h
- CL/F Mean (25 mg): 3.69 L/h
- CL/F Median (25 mg): 3.32 L/h
- Extrapolation Geometric Mean (25 mg): 1.45%
- Extrapolation Mean (25 mg): 1.72%
- Extrapolation Median (25 mg): 1.92%
- Half-Life Lambda Z Geometric Mean (25 mg): 13.14 h
- Half-Life Lambda Z Mean (25 mg): 13.28 h
- Mean Residence Time Geometric Mean (25 mg): 20.60 h
- Mean Residence Time Median (25 mg): 20.07 h
- Tmax Geometric Mean (25 mg): 4.64 h
- Tmax Mean (25 mg): 4.67 h
- AUC0-last Geometric Mean (50 mg): 11075.03 ng·h/mL
- AUC0-last Median (50 mg): 11185.34 ng·h/mL
- AUC0-∞ Geometric Mean (50 mg): 11177.07 ng·h/mL
- AUC0-∞ Median (50 mg): 11204.30 ng·h/mL
- CL/F Geometric Mean (50 mg): 4.47 L/h
- CL/F Mean (50 mg): 4.53 L/h
- CL/F Median (50 mg): 4.46 L/h
- Extrapolation Geometric Mean (50 mg): 0.46%
- Extrapolation Mean (50 mg): 0.91%
- Extrapolation Median (50 mg): 0.46%
- Mean Residence Time Geometric Mean (50 mg): 20.79 h
- Mean Residence Time Mean (50 mg): 20.98 h
- Tmax Geometric Mean (50 mg): 4.66 h
- Tmax Mean (50 mg): 4.69 h
- AUC0-48 Median (100 mg): 21561.98 ng·h/mL
- AUC0-last Geometric Mean (100 mg): 21734.19 ng·h/mL
- AUC0-last Median (100 mg): 22401.00 ng·h/mL
- CL/F Geometric Mean (100 mg): 4.69 L/h
- CL/F Mean (100 mg): 4.76 L/h
- CL/F Median (100 mg): 5.33 L/h
- Extrapolation Geometric Mean (100 mg): 0.36%
- Extrapolation Mean (100 mg): 5.48%
- Extrapolation Median (100 mg): 0.14%
- Half-Life Lambda Z Geometric Mean (100 mg): 11.08 h
- Tmax Mean (100 mg): 4.50 h
- AUC0-48 Median (175 mg): 32704.35 ng·h/mL
- AUC0-last Geometric Mean (175 mg): 38235.62 ng·h/mL
- CL/F Geometric Mean (175 mg): 4.57 L/h
- CL/F Mean (175 mg): 4.66 L/h
- CL/F Median (175 mg): 4.45 L/h
- Cmax Geometric Mean (175 mg): 1301.37 ng/mL
- Cmax Mean (175 mg): 1316.17 ng/mL
- Extrapolation Geometric Mean (175 mg): 0.14%
- Extrapolation Mean (175 mg): 0.17%
- Extrapolation Median (175 mg): 0.16%
- Half-Life Lambda Z Mean (175 mg): 15.83 h
- Mean Residence Time Geometric Mean (175 mg): 24.44 h
- Mean Residence Time Median (175 mg): 24.43 h
- Tmax Geometric Mean (175 mg): 5.07 h
- Tmax Mean (175 mg): 5.11 h
- AUC0-24 Geometric Mean (350 mg): 44703.88 ng·h/mL
- AUC0-48 Median (350 mg): 66430.88 ng·h/mL
- AUC0-last Geometric Mean (350 mg): 73185.05 ng·h/mL
- AUC0-last Median (350 mg): 76161.9 ng·h/mL
- AUC0-∞ Geometric Mean (350 mg): 73626.42 ng·h/mL
- AUC0-∞ Median (350 mg): 76241.22 ng·h/mL
- CL/F Geometric Mean (350 mg): 4.75 L/h
- CL/F Mean (350 mg): 4.95 L/h
- CL/F Median (350 mg): 4.75 L/h
- Extrapolation Geometric Mean (350 mg): 0.37%
- Extrapolation Mean (350 mg): 0.60%
- Extrapolation Median (350 mg): 0.43%
- Half-Life Lambda Z Mean (350 mg): 14.66 h
- Mean Residence Time Median (350 mg): 22.73 h
- Tmax Geometric Mean (350 mg): 4.84 h
- Tmax Mean (350 mg): 4.95 h
- AUC0-24 Median (350 mg + 525 mg): 38537.03 ng·h/mL
- AUC0-∞ Mean (350 mg + 525 mg): 74358.88 ng·h/mL
- CL/F Geometric Mean (350 mg + 525 mg): 6.04 L/h
- CL/F Mean (350 mg + 525 mg): 6.51 L/h
- CL/F Median (350 mg + 525 mg): 6.10 L/h
- Extrapolation Geometric Mean (350 mg + 525 mg): 0.29%
- Extrapolation Mean (350 mg + 525 mg): 0.59%
- Extrapolation Median (350 mg + 525 mg): 0.32%
- Half-Life Lambda Z Geometric Mean (350 mg + 525 mg): 14.51 h
- Mean Residence Time Mean (350 mg + 525 mg): 24.28 h
- Tmax Geometric Mean (350 mg + 525 mg): 4.89 h
- Tmax Mean (350 mg + 525 mg): 4.96 h
- AUC0-24 Median (525 mg): 38212.84 ng·h/mL
- AUC0-48 Geometric Mean (525 mg): 56964.59 ng·h/mL
- AUC0-last Geometric Mean (525 mg): 68111.84 ng·h/mL
- AUC0-∞ Geometric Mean (525 mg): 68514.68 ng·h/mL
- CL/F Geometric Mean (525 mg): 7.66 L/h
- CL/F Mean (525 mg): 8.07 L/h
- CL/F Median (525 mg): 7.64 L/h
- Cmax Geometric Mean (525 mg): 2294.46 ng/mL
- Cmax Mean (525 mg): 2350.00 ng/mL
- Extrapolation Geometric Mean (525 mg): 0.22%
- Extrapolation Mean (525 mg): 0.59%
- Extrapolation Median (525 mg): 0.23%
- Half-Life Lambda Z Geometric Mean (525 mg): 14.70 h
- Half-Life Lambda Z Median (525 mg): 13.77 h
- Tmax Geometric Mean (525 mg): 4.94 h
- Tmax Mean (525 mg): 4.97 h
- dose proportionality slope (power model) (all doses, 95% CI 0.8358-0.9417): 0.8888
